GI50 and TGI data for eight molecules are collected here from PubChem BioAssay (NCI).

Among the test systems are UO-31 renal; SW-620 colon; HCT-116 colon; IGROV1 ovarian; PC-3 prostate; T-47D breast; HT29 colon; OVCAR-8 ovarian; HCT-15 colon; HS 578T breast.
Common to all, as to experiment: DTP human tumour cell line panel, 48 h

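Interpolation was linear, between the two tested concentrations surrounding the appropriate level; five concentrations were tested over 48 hours in 96-well plates. GI50 marks 50% less growth. TGI: concentration producing complete growth inhibition.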

In general, GI50 refers to the concentration at which growth is held to half of that of the control. As usually defined, the TGI is the concentration giving total growth inhibition. A low value points to greater sensitivity of the cells. For `COc1ccc(-c2ccncc2)cc1C(N)=O`, the GI50 with UO-31 renal, with SW-620 colon, in the assay on HCT-116 colon, with IGROV1 ovarian, in the assay on PC-3 prostate and in the assay on T-47D breast was more than 25 µM each time. The GI50 with HT29 colon, in the assay with OVCAR-8 ovarian, in the assay with HCT-15 colon and with HS 578T breast was more than 25 µM in each case. For the same molecule, the TGI in the assay on UO-31 renal, in the assay on SW-620 colon, with HCT-116 colon, with IGROV1 ovarian, in the assay on PC-3 prostate and in the assay with T-47D breast was more than 25 µM throughout. Moreover, the TGI with HT29 colon, in the assay with OVCAR-8 ovarian, in the assay with HCT-15 colon and in the assay with HS 578T breast was more than 25 µM throughout.

Consider `NCCSSCCN`, for which the TGI in the assay on UO-31 renal, with SW-620 colon, in the assay with HCT-116 colon, in the assay with IGROV1 ovarian, in the assay with PC-3 prostate and in the assay on T-47D breast was more than 100 µM throughout. For the same molecule, the TGI in the assay on HT29 colon, in the assay on OVCAR-8 ovarian, in the assay with HCT-15 colon and in the assay with HS 578T breast was more than 100 µM in each case.

Regarding `O=C1/C(=C/c2cccc(Br)c2)COc2ccc(O)cc21`, the GI50 was 1.51 µM with UO-31 renal; 0.683 µM in the assay on SW-620 colon; 1.45 µM in the assay with HCT-116 colon; 1.92 µM in the assay with IGROV1 ovarian; 2.04 µM with PC-3 prostate; 2.18 µM in the assay on T-47D breast. Moreover, the GI50 in the assay on HT29 colon was 2.43 µM; with OVCAR-8 ovarian, 3.4 µM; with HCT-15 colon, 1.95 µM; in the assay on HS 578T breast, 3.47 µM. In addition, the TGI turned out to be 3.46 µM in the assay with UO-31 renal; 2.49 µM with SW-620 colon; 2.99 µM with HCT-116 colon; 4.75 µM in the assay with IGROV1 ovarian; 5.57 µM in the assay with PC-3 prostate; 6.28 µM with T-47D breast. Moreover, the TGI was found to be 10.2 µM with HT29 colon, 12.9 µM in the assay with OVCAR-8 ovarian, 7.88 µM with HCT-15 colon and 26.2 µM with HS 578T breast.

As to `CCCCCCCCCCCCCCCCCC1=NC(C)(C)CN1CC(C)O` (stereo not given), the GI50 was 13.8 µM in the assay with UO-31 renal; 2.15 µM with SW-620 colon; 2.43 µM in the assay on HCT-116 colon; 10.1 µM in the assay on IGROV1 ovarian; 3.31 µM in the assay with PC-3 prostate; 6.58 µM in the assay with T-47D breast. Moreover, the GI50 is 3.02 µM in the assay on HT29 colon, 3.99 µM in the assay with OVCAR-8 ovarian, 1.88 µM in the assay with HCT-15 colon and 14 µM with HS 578T breast. The TGI was 29.4 µM with UO-31 renal; 4.78 µM with SW-620 colon; 5.86 µM in the assay on HCT-116 colon; 27.7 µM with IGROV1 ovarian; 10.8 µM in the assay with PC-3 prostate; 28 µM in the assay on T-47D breast. Moreover, the TGI in the assay with HT29 colon came out at 7.42 µM; in the assay on OVCAR-8 ovarian it was 14.5 µM; in the assay on HCT-15 colon it was 3.95 µM; in the assay on HS 578T breast, 34.2 µM.

Turning to `NS(=O)(=O)c1ccc(-n2nc3c(c2-c2ccc(Cl)cc2)Cc2ccccc2-3)cc1`, the GI50 with UO-31 renal was 9.57 µM; with SW-620 colon it was 1.88 µM; in the assay with HCT-116 colon it was 4.06 µM; with IGROV1 ovarian it was 2.58 µM; in the assay with PC-3 prostate, 14 µM; with T-47D breast, 91 µM. Further, the GI50 was 15.4 µM in the assay on HT29 colon, 21.6 µM with OVCAR-8 ovarian, 19.7 µM in the assay on HCT-15 colon and 12.1 µM in the assay on HS 578T breast. The TGI in the assay with UO-31 renal was 21.8 µM; in the assay with SW-620 colon, 4.48 µM; with HCT-116 colon, 21.3 µM; with IGROV1 ovarian it was 14.2 µM; in the assay on PC-3 prostate it was 27.9 µM; with T-47D breast, more than 100 µM. Also, the TGI in the assay with HT29 colon was 98.1 µM; with OVCAR-8 ovarian, 44 µM; in the assay on HCT-15 colon it was 38.4 µM; with HS 578T breast, 33 µM.

As for `[C](#Cc1ccccc1)[Hg][C]#Cc1ccccc1`, the GI50 in the assay with UO-31 renal was 32.5 µM; in the assay on SW-620 colon it was 35.5 µM; in the assay on HCT-116 colon, 72.5 µM; in the assay on IGROV1 ovarian it was 29.7 µM; with PC-3 prostate, 30.6 µM; in the assay with T-47D breast, 28.8 µM. For the same molecule, the GI50 is 14.1 µM with HT29 colon, 26.6 µM with OVCAR-8 ovarian, 21.1 µM in the assay with HCT-15 colon and more than 100 µM in the assay with HS 578T breast. Also, the TGI is 74.6 µM in the assay with UO-31 renal; more than 100 µM with SW-620 colon; more than 100 µM with HCT-116 colon; 97.5 µM in the assay with IGROV1 ovarian; 87.5 µM in the assay on PC-3 prostate; 79.1 µM in the assay on T-47D breast. In addition, the TGI in the assay with HT29 colon was 40.9 µM; in the assay on OVCAR-8 ovarian, 60.9 µM; in the assay on HCT-15 colon, 43.7 µM; in the assay with HS 578T breast it was more than 100 µM.

Turning to `COc1cc(OC)c(C(=O)/C=C/c2cc3c(cc2OCc2ccccc2)OC(C)(C)CC3)cc1CC=C(C)C`, the GI50 with UO-31 renal is 13 µM; in the assay with SW-620 colon it was 4.31 µM; in the assay with HCT-116 colon, 2.98 µM; in the assay on IGROV1 ovarian, 15 µM; in the assay with PC-3 prostate, 5.75 µM; with T-47D breast it was 3.74 µM. Moreover, the GI50 with HT29 colon was 3.57 µM; with OVCAR-8 ovarian it was 4.14 µM; with HCT-15 colon, 3.84 µM; with HS 578T breast, 3.05 µM. The TGI in the assay with UO-31 renal is more than 25 µM; in the assay with SW-620 colon, 10.2 µM; with HCT-116 colon, 6.41 µM; with IGROV1 ovarian, more than 25 µM; in the assay on PC-3 prostate, more than 25 µM; in the assay on T-47D breast, 19.1 µM. Also, the TGI in the assay on HT29 colon was 8.92 µM; with OVCAR-8 ovarian it was more than 25 µM; in the assay with HCT-15 colon, 9.68 µM; in the assay with HS 578T breast it was 16.7 µM.

As to `Cc1nc(-c2ccccc2)n2nc(NCCCN3CCOCC3)ncc12`, the GI50 is 4.48 µM with UO-31 renal; more than 25 µM with SW-620 colon; 19.4 µM in the assay with HCT-116 colon; 13.8 µM with IGROV1 ovarian; more than 25 µM with PC-3 prostate; more than 25 µM in the assay with T-47D breast. The GI50 was more than 25 µM in the assay with HT29 colon, more than 25 µM in the assay with OVCAR-8 ovarian, 12.8 µM in the assay with HCT-15 colon and 12.2 µM with HS 578T breast. Besides, the TGI was 24.4 µM with UO-31 renal; more than 25 µM in the assay with SW-620 colon; more than 25 µM in the assay with HCT-116 colon; more than 25 µM in the assay with IGROV1 ovarian; more than 25 µM in the assay with PC-3 prostate; more than 25 µM in the assay on T-47D breast. For the same molecule, the TGI in the assay with HT29 colon, in the assay with OVCAR-8 ovarian, in the assay with HCT-15 colon and in the assay with HS 578T breast was more than 25 µM each time.
